Experimental data: publication PMC10746543, “Design principles for cyclin K molecular glue degraders” (Nature Chemical Biology, 2023)
Where “and” joins values, the source holds several entries; their conditions need not be identical. Identical values can stand only once. Like-named read-outs stand apart in the source and are kept apart here.

What was measured:
CDK12–cyclin K and DDB1 = molecular target: T1, CDK12–cyclin K and DDB1 (Homo sapiens, UniProt Q16531+Q9NYV4, K965R); test: TR-FRET ternary complex formation assay (compound titration); assay type: binding
T1 construct: His6–CDK12 (a.a. 713–1,052); full-length or beta-propeller B domain deletion (ΔBPB: a.a. 396–705 deleted) constructs of His6–DDB1ΔBPB, StrepII–Avi–DDB1, or His6–Spy–DDB1; made in house; host or cells: Trichoplusia ni High Five insect cells (baculovirus)
Summary of the method: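 Background fluorescence is reduced by reading 70 μs after excitation, and complex formation is followed as the 520:490 nm fluorescence ratio.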

[1] = system: cyclin K–eGFP degradation reporter; test: Cyclin K reporter stability analysis (dual-color cyclin K–eGFP reporter); assay type: cell-based, human
Summary of the method: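 Readout was the eGFP-to-mCherry geometric-mean ratio by flow cytometry, normalized to three DMSO controls, after 5 h drug exposure. Cells used were HEK293T–Cas9 expressing the dual-colour cyclin K–eGFP degradation reporter.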

HEK293T cells = test: Drug sensitivity assay (CellTiter-Glo viability) with or without MLN4924 pretreatment; assay type: cell-based, human; details: Supplementary Table 2; for EC50: Homo sapiens, HEK-293T, HEK293T viability, 72 h, compound alone, read-out: Cellular assays EC50; for Toxicity rescue: MLN4924-mediated cytotoxicity rescue, 10 µM used where n.d.
Summary of the method: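 First, cells (HEK293T–Cas9, 0.15 × 10^6 ml^−1) are exposed to DMSO or 100 nM MLN4924. Next, drugs follow at 2 h. Finally, CellTiter-Glo is read at day 3 and normalised to DMSO.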

CDK12–cyclin K = CDK12–cyclin K (Homo sapiens, UniProt Q9NYV4); test: Lanthascreen kinase binding assay, CDK12; details: for Lanthascreen raw signal, sheet CDK12: series r1, duplicates
Method: (§1) Lanthascreen experiments were performed using commercially available reagents (Thermo Fisher) and according to the manufacturer’s instructions.

CDK9–cyclin T = molecular target: T2, CDK9–cyclin T (Homo sapiens, UniProt P50750); test: Lanthascreen kinase binding assay, CDK9; details: for Lanthascreen TR-FRET signal (raw ratio), sheet CDK9: first titration set (r1), duplicates
T2 construct: purchased Thermo Fisher
Method: as §1

CDK2–cyclin A = molecular target: T3, CDK2–cyclin A (Homo sapiens, UniProt P24941); test: Lanthascreen kinase binding assay, CDK2; details: for Lanthascreen signal, sheet CDK2: raw replicates, experiment r1-r11
T3 construct: purchased Thermo Fisher
Method: as §1

[2] = in vitro complex formation, 50 nM CDK12–cyclin K, 100 nM DDB1, text and figures, read-out: TR-FRET EC50
[3] = Supplementary Table 2, HEK293T cycK-eGFP reporter, 5 h, read-out: Cellular assays DC50

Sequence of CDK12–cyclin K (Q9NYV4 713-1052): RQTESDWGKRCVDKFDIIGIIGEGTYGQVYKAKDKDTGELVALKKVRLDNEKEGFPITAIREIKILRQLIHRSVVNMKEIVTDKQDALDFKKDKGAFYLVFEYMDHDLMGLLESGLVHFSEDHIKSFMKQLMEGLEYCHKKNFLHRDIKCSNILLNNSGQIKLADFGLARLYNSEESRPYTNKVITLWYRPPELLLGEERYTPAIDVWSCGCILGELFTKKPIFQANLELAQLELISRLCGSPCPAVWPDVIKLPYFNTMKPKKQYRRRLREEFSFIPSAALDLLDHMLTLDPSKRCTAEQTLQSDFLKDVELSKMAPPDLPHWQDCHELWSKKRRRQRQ
Sequence of CDK12–cyclin K (O75909 1-267 partner limits assumed): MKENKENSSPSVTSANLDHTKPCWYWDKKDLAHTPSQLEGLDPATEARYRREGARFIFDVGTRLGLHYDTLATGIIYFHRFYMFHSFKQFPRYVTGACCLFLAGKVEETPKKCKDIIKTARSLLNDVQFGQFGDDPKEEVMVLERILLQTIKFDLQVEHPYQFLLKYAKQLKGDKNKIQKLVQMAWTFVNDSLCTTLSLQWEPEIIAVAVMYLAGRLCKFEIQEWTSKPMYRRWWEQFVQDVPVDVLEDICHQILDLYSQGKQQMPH
T1 sequence (Q9NYV4 713-1052 K965R): as the sequence (Q9NYV4 713-1052) above, with K253R counted along it
T1 sequence (O75909 1-267 partner): as the sequence (O75909 1-267 partner limits assumed) above
T1 sequence (Q16531 whole entry): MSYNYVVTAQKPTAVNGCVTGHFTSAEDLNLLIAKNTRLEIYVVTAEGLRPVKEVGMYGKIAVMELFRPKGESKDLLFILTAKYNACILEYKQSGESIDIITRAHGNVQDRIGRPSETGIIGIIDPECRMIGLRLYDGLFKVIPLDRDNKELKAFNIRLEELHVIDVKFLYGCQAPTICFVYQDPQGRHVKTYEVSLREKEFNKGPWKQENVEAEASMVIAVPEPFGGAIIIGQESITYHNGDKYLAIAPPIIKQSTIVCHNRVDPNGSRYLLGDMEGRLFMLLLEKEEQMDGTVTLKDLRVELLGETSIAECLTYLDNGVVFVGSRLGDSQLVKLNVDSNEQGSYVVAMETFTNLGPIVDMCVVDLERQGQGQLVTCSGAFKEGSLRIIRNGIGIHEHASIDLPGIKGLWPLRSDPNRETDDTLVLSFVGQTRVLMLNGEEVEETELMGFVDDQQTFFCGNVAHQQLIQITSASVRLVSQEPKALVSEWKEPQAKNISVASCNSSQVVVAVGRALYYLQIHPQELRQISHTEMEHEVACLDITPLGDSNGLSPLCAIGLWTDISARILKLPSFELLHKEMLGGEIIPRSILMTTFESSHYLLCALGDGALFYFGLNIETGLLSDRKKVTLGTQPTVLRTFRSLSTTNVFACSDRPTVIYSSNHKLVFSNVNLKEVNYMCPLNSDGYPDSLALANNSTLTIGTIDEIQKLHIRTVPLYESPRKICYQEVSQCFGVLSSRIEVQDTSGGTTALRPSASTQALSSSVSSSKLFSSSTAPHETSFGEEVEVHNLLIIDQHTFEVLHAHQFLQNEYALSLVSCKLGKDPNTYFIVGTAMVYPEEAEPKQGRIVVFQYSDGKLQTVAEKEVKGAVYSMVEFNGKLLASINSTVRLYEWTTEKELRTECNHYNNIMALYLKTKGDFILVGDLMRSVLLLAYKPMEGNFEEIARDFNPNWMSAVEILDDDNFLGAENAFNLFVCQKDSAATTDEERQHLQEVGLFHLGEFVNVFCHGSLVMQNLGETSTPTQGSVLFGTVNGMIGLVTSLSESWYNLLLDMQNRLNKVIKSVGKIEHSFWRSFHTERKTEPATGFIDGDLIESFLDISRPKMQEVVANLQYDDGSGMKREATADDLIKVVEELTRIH
T2 sequence (P50750 whole entry): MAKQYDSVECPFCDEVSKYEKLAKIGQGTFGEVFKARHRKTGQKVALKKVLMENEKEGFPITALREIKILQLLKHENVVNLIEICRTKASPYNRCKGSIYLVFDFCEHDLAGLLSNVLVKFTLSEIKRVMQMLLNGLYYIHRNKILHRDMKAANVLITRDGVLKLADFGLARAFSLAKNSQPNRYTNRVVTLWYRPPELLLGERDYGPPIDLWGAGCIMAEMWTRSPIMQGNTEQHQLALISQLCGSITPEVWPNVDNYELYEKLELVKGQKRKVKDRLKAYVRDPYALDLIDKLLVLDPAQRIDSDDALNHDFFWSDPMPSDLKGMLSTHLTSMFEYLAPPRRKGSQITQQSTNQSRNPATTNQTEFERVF
T2 sequence (O60563 whole entry partner): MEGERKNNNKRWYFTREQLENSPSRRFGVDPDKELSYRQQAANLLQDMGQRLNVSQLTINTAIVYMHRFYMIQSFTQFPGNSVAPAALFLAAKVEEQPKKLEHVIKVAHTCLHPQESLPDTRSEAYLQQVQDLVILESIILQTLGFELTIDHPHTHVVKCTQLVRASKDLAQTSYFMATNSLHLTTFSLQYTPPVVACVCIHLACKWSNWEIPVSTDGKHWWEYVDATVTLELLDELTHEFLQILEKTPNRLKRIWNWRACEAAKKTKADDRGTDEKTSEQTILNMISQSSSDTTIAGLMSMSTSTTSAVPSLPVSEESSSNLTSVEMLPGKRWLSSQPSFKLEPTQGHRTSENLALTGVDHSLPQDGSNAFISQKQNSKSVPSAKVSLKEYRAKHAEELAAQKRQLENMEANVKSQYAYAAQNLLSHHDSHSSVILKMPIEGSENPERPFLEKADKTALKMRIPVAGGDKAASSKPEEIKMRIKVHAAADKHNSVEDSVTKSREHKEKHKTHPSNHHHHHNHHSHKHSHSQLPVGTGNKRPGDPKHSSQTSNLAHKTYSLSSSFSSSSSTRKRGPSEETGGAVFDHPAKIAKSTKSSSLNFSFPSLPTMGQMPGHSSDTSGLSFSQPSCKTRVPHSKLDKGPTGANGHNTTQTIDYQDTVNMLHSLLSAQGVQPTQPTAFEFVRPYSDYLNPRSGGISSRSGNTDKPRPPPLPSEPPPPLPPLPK

## Fc1ccc2[nH]c(CNc3nc(N4CCOCC4)nc4c(Br)cnn34)nc2c1F [DS72]
CDK12–cyclin K and DDB1; compound concentration 0.468 nM, raw replicate titration data
  TR-FRET signal at compound concentration 0.468 nM: 0.3453 and 0.3314 and 0.2038 and 0.2054
CDK12–cyclin K and DDB1; compound concentration 2.16 nM, raw replicate titration data
  TR-FRET signal at compound concentration 2.16 nM: 0.4522 and 0.4261 and 0.3132 and 0.3307
CDK12–cyclin K and DDB1; compound concentration 3.6 nM, raw replicate titration data
  TR-FRET signal at compound concentration 3.6 nM: 0.6871 and 0.6344 and 0.5591 and 0.6106
CDK12–cyclin K and DDB1; compound concentration 7.92001 nM, raw replicate titration data
  TR-FRET signal at compound concentration 7.92001 nM: 1.2161 and 1.061 and 1.142 and 1.169
CDK12–cyclin K and DDB1; compound concentration 15.84 nM, raw replicate titration data
  TR-FRET signal at compound concentration 15.84 nM: 2.149 and 1.974 and 2.1219 and 2.262
CDK12–cyclin K and DDB1; compound concentration 30.96 nM, raw replicate titration data
  TR-FRET signal at compound concentration 30.96 nM: 3.31 and 3.181 and 2.938 and 2.942
CDK12–cyclin K and DDB1; compound concentration 62.6401 nM, raw replicate titration data
  TR-FRET signal at compound concentration 62.6401 nM: 3.363 and 3.323 and 3.061 and 3.125
CDK12–cyclin K and DDB1; compound concentration 125.28 nM, raw replicate titration data
  TR-FRET signal at compound concentration 125.28 nM: 3.473 and 3.376 and 3.04 and 3.123
CDK12–cyclin K and DDB1; compound concentration 244.8 nM, raw replicate titration data
  TR-FRET signal at compound concentration 244.8 nM: 3.475 and 3.275 and 3.121 and 3.153
CDK12–cyclin K and DDB1; compound concentration 993.601 nM, raw replicate titration data
  TR-FRET signal at compound concentration 993.601 nM: 3.459 and 3.133 and 3.073
CDK12–cyclin K and DDB1; compound concentration 2001.6 nM, raw replicate titration data
  TR-FRET signal at compound concentration 2001.6 nM: 3.344 and 3.271 and 3.14 and 3.1113
CDK12–cyclin K and DDB1; [2]
  EC50: 12 ± 1 nM
CDK12–cyclin K and DDB1; source data sheet correlations, read-out: TR-FRET EC50
  EC50: 12.2 nM
[1]; source data sheet correlations, read-out: DC50
  DC50: 0.006 µM
HEK293T cells
  EC50: 0.006 µM
  Toxicity rescue: 533%
CDK12–cyclin K; Supplementary Table 2, read-out: Lanthascreen IC50 [nM] CDK12
  IC50: 1 nM
CDK12–cyclin K; compound 1.02544 nM
  Lanthascreen raw signal, sheet CDK12: 0.008081 and 0.009101
CDK12–cyclin K; compound 3.15521 nM
  Lanthascreen raw signal, sheet CDK12: 0.008849 and 0.007319
CDK12–cyclin K; compound 9.46563 nM
  Lanthascreen raw signal, sheet CDK12: 0.006356 and 0.00835
CDK12–cyclin K; compound 31.5521 nM
  Lanthascreen raw signal, sheet CDK12: 0.005926 and 0.005481
CDK12–cyclin K; compound 99.3891 nM
  Lanthascreen raw signal, sheet CDK12: 0.005678 and 0.004673
CDK12–cyclin K; compound 315.521 nM
  Lanthascreen raw signal, sheet CDK12: 0.005163 and 0.006077
CDK12–cyclin K; compound 3155.21 nM
  Lanthascreen raw signal, sheet CDK12: 0.003862 and 0.004893
CDK12–cyclin K; compound 10002 nM
  Lanthascreen raw signal, sheet CDK12: 0.003963 and 0.004045
CDK9–cyclin T; Supplementary Table 2, read-out: Lanthascreen IC50 [nM] CDK9
  IC50: 104 nM
CDK9–cyclin T; compound 1.02544 nM
  Lanthascreen TR-FRET signal (raw ratio), sheet CDK9: 0.0138 and 0.01522
CDK9–cyclin T; compound 3.15521 nM
  Lanthascreen TR-FRET signal (raw ratio), sheet CDK9: 0.01223 and 0.01249
CDK9–cyclin T; compound 9.46563 nM
  Lanthascreen TR-FRET signal (raw ratio), sheet CDK9: 0.0129 and 0.01178
CDK9–cyclin T; compound 31.5521 nM
  Lanthascreen TR-FRET signal (raw ratio), sheet CDK9: 0.00952 and 0.01286
CDK9–cyclin T; compound 99.3891 nM
  Lanthascreen TR-FRET signal (raw ratio), sheet CDK9: 0.008274 and 0.008068
CDK9–cyclin T; compound 315.521 nM
  Lanthascreen TR-FRET signal (raw ratio), sheet CDK9: 0.006761 and 0.006072
CDK9–cyclin T; compound 3155.21 nM
  Lanthascreen TR-FRET signal (raw ratio), sheet CDK9: 0.003594 and 0.002711
CDK9–cyclin T; compound 10002 nM
  Lanthascreen TR-FRET signal (raw ratio), sheet CDK9: 0.003294 and 0.003353
CDK2–cyclin A; Compound 1.02544 nM
  Lanthascreen signal, sheet CDK2: 0.009384 and 0.009817
CDK2–cyclin A; Compound 3.15521 nM
  Lanthascreen signal, sheet CDK2: 0.009333 and 0.009829
CDK2–cyclin A; Compound 9.46563 nM
  Lanthascreen signal, sheet CDK2: 0.009654 and 0.01088
CDK2–cyclin A; Compound 31.5521 nM
  Lanthascreen signal, sheet CDK2: 0.008522 and 0.009526
CDK2–cyclin A; Compound 99.3891 nM
  Lanthascreen signal, sheet CDK2: 0.01016 and 0.009968
CDK2–cyclin A; Compound 315.521 nM
  Lanthascreen signal, sheet CDK2: 0.008698 and 0.009504
CDK2–cyclin A; Compound 3155.21 nM
  Lanthascreen signal, sheet CDK2: 0.005132 and 0.004872
CDK2–cyclin A; Compound 10002 nM
  Lanthascreen signal, sheet CDK2: 0.003933 and 0.00458
CDK2–cyclin A; Supplementary Table 2, read-out: Lanthascreen IC50 [nM] CDK2
  IC50: 1060 nM

## CC(C)n1cnc2c(NCc3ccc(-c4ccccn4)cc3)nc(NCCCCCC(=O)N[C@H]3O[C@H](CO)[C@@H](O)[C@H](O)[C@H]3O)nc21 [DS51]
CDK12–cyclin K and DDB1; Supplementary Table 2, read-out: TR-FRET EC50 TR-FRET
  EC50: 274 nM
CDK12–cyclin K and DDB1; raw titration data
  TR-FRET signal at compound concentration 4.68 nM: 0.2297 and 0.2444
  TR-FRET signal at compound concentration 21.6 nM: 0.3216 and 0.3313
  TR-FRET signal at compound concentration 36 nM: 0.5067 and 0.5037
  TR-FRET signal at compound concentration 79.2001 nM: 0.816 and 0.7927
  TR-FRET signal at compound concentration 158.4 nM: 1.255 and 1.244
  TR-FRET signal at compound concentration 309.6 nM: 1.886 and 1.872
  TR-FRET signal at compound concentration 626.401 nM: 2.526 and 2.552
  TR-FRET signal at compound concentration 1252.8 nM: 3.049 and 3.029
  TR-FRET signal at compound concentration 2448 nM: 3.216 and 3.3184
  TR-FRET signal at compound concentration 9936.01 nM: 3.256 and 3.415
  TR-FRET signal at compound concentration 20016 nM: 3.017 and 3.197
CDK12–cyclin K and DDB1; [2]
  EC50: 275 ± 16 nM
CDK12–cyclin K and DDB1; sheet MOESM7, read-out: log TR-FRET EC50 (converted)
  EC50: 274 nM
[1]; [3]
  DC50: > 10 µM
HEK293T cells
  EC50: > 10 µM
  Toxicity rescue: 0%

## CO[C@@H](C(=O)N1Cc2n[nH]c(NC(=O)c3ccc(N4CCN(C)CC4)cc3)c2C1)c1ccccc1 [Danusertib, reference compound]
CDK12–cyclin K and DDB1; raw replicate titration data
  TR-FRET signal at compound concentration 4.68 nM: 0.1339 and 0.1541
  TR-FRET signal at compound concentration 21.6 nM: 0.1288 and 0.1496
  TR-FRET signal at compound concentration 36 nM: 0.1327 and 0.1506
  TR-FRET signal at compound concentration 79.2001 nM: 0.1323 and 0.1494
  TR-FRET signal at compound concentration 158.4 nM: 0.1293 and 0.1473
  TR-FRET signal at compound concentration 309.6 nM: 0.1264 and 0.1438
  TR-FRET signal at compound concentration 626.401 nM: 0.1205 and 0.1382
  TR-FRET signal at compound concentration 1252.8 nM: 0.1096 and 0.1174
  TR-FRET signal at compound concentration 2448 nM: 0.09891 and 0.113
  TR-FRET signal at compound concentration 9936.01 nM: 0.07702 and 0.08712
  TR-FRET signal at compound concentration 20016 nM: 0.06845 and 0.07789
[1]; [3]
  DC50: > 10 µM
HEK293T cells
  EC50: > 10 µM
  Toxicity rescue: 0%
